Results reported in patent US20240238365A1, “AMYLOID-Beta AGGREGATION INHIBITOR, PHARMACEUTICAL COMPOSITION FOR AMYLOID-Beta AGGREGATION DISEASES, AND USE APPLICATION OF SAME” (O-FORCE CO., LTD., priority 2021, published 2024).
pIC50: −log10 of the molar value. Entries after “also recorded” stand apart in the source; their conditions may differ. Where no end group is shown, it is not given here.

Key:
[1] = target: T1, Aß25-35 (Homo sapiens, UniProt P05067); assay: Inhibition of Aß25-35 aggregation, thioflavin T (ThT) fluorescence; format: biochemical; conditions: 0.1 mM peptide YS, 0.1 mM Aß25-35, 37° C., incubation 4 hours, n=3
Method: The peptides YS-11, YS-15, and YS-16 were used as the peptides YS of the examples. Each of the peptides was dissolved in MilliQ water to prepare three types of 1-mg/mL YS solutions.
An Aß-derived fragment peptide was used for aggregation of Aß. Aß25-35, which has high aggregability, was selected as the fragment peptide. The Aß25-35 is a peptide (SEQ ID NO: 7: GSNKGAIIGLM) constituted by 11 amino acid residues consisting of the twenty-fifth to thirty-fifth amino acid residues in the full length sequence of human-derived Aß (SEQ ID NO: 6). The Aß25-35 was dissolved in MilliQ water to prepare a 1-mmol/L Aß25-35 solution.
The fluorescent dye thioflavin T (ThT) binds to aggregates and emits strong fluorescence upon binding, and thus the increase or inhibition of aggregation can be determined by measuring the fluorescence intensity. Thus, the inhibition of aggregation of the Aß25-35 by each peptide YS was checked using ThT.
Specifically, a reaction solution with the following composition was prepared and dispensed into wells such that the amount of the reaction solution per well was 200 μL. After the reaction solution was incubated at 37° C. for a predetermined period of time (0 or 4 hours), 10 μL of 2-mmol/L ThT (reagent name “Thioflavine T”, manufactured by FUJIFILM Wako Pure Chemical Corporation) was added to each well, and the fluorescence intensity was measured using a measurement device (product name “Cytation5”, manufactured by BioTek) (n=3). The measurement wavelengths were set such that the excitation wavelength (ex) was 444 nm and the fluorescence wavelength (em) was 480 nm. As a control, a reaction solution to which water had been added instead of the peptide YS was also measured in the same way.

[2] = target: T1, Aß25-35; assay: Aggregation inhibition checked by scanning electron microscope; format: biochemical; conditions: 0.1 mM peptide, 0.1 mM Aß25-35, 37° C., 4 hours, versus no peptide YS
Method: A reaction solution with the following composition was prepared in a 1.5-mL tube (manufactured by Eppendorf). After incubating at 37° C. for 4 hours, the reaction solution was centrifuged (12,000 rpm, 10 minutes), and a precipitate was collected. The collected precipitate was washed as follows: 200 μL of MilliQ water was added to the precipitate and the resultant mixture was centrifuged again (12,000 rpm, 10 minutes). This washing treatment was performed three times. Then, 100 μL of a 1% phosphotungstic acid solution was added to the collected precipitate. After the resultant mixture was left to stand for 5 minutes at room temperature, the precipitate was collected through centrifugation (12,000 rpm, 10 minutes), was washed by adding 200 μL of MilliQ water thereto, and was collected through centrifugation (12,000 rpm, 10 minutes). 100 μL of MilliQ water was added to the precipitate, and a suspension was formed using a Vortex mixer. The suspension was added to a glass slide and dried, followed by observation under a scanning electron microscope. [table]

[3] = test system: ICR mice to which Aß25-35 had been administered; assay: Y-maze short-term memory test in mice given Aß25-35; format: in vivo
Method: The aggregation inhibiting peptide was further administered to mice to which the Aß25-35 had been administered, and then the effects of the aggregation inhibiting peptide was checked.
The Aß25-35 was dissolved in a saline solution to prepare a 3-mmol/L Aß25-35 solution. The Aß25-35 and the YS-11 were dissolved in a saline solution to prepare a mixed solution containing the Aß25-35 at a concentration of 3 mmol/L and the YS-11 at a concentration of 3 mmol/L. The YS-11 was dissolved in a saline solution to prepare a 10-mg/mL YS-11 solution. A saline solution (Saline) was used as a control.
ICR mice (6-week old) were prepared and divided into an Aß25-35 administration group (n=15), a control (Saline) administration group (n=15), a mixed solution administration group (n=6), and a peptide YS administration group (n=7).
The administration schedule was as follows: ventricular administration was performed on Day 1, and nasal administration was performed on Day 14, Day 17, Day 20, and Day 23. A microsyringe was used for the ventricular administration, and a Pipetman was used for the nasal administration. Specifically, the administration was performed on each administration group as follows. […]
Then, on Day 14 and Day 28, the short-term memory was evaluated using a Y-maze. […]

[4] = target: T2, Aß25-35 aggregates (Homo sapiens, UniProt P05067); assay: Dissociation of Aß25-35 aggregates checked by scanning electron microscope; format: biochemical; conditions: pre-formed aggregates; 100 μL of 0.05-mmol/L YS-11 or 1-mmol/L YS-16 solution added, 37° C., 5 days; versus no peptide
Method: A reaction solution with the following composition was prepared in a 1.5-mL tube (manufactured by Eppendorf) and incubated at 37° C. for 18 hours to form aggregates of the Aß25-35. Then, 100 μL of a peptide YS solution at a predetermined concentration was added to the reaction solution, and the resultant mixture was further incubated at 37° C. for 5 days. A 0.05-mmol/L YS-11 solution, a 1-mmol/L YS-16 solution, and a 1-mmol/L YS-6 solution were used as the peptide YS solution, and MilliQ water was used instead of the peptide YS solution as a control. After the incubation, centrifugation (12,000 rpm, 10 minutes) was performed to collect a precipitate. The precipitate was treated in the same manner as in Example 1(3) above, and was then observed under a scanning electron microscope. [table]

[5] = target: T1, Aß25-35; assay: IC50 of YS peptide against Aß25-35 aggregation (ThT fluorescence); format: biochemical; conditions: 37° C., ThT added 2 hours after start of incubation, blank corrected, n=3
Method: Reaction solutions with different compositions, namely those with the following compositions (A, B, C, and D), were prepared and dispensed into wells such that the amount of the reaction solution per well was 200 μL. The concentration (X mmol/L) of the peptide YS (YS-11 or YS-16) in the YS solution to be added to the reaction solutions was set to 0.01, 0.05, 0.1, 0.5, and 1 mmol/L. The reaction solutions were incubated at 37° C., and 10 μL of 2-mmol/L ThT (reagent name “Thioflavine T”, manufactured by FUJIFILM Wako Pure Chemical Corporation) was added to each well 2 hours after the start of the incubation. Then, the fluorescence intensity was measured using the measurement device (n=3). The measurement wavelengths were set such that the excitation wavelength (ex) was 444 nm and the fluorescence wavelength (em) was 480 nm. [table] […] In FIG. 2, the vertical axes indicate the fluorescence intensity (unit: FI), and the horizontal axes indicate the concentration of the peptide YS (unit: μmol/L).

[6] = target: T2, Aß25-35 aggregates; assay: Peptide YS concentration versus ability to dissociate Aß25-35 aggregates (ThT fluorescence); format: biochemical; conditions: 37° C.; for ability to dissociate Aß25-35 aggregates: 5 days after aggregate formation
Method: First, a reaction solution with the following composition was prepared, was dispensed into wells such that the amount of the reaction solution per well was 200 μL, and was incubated at 37° C. for 18 hours to form aggregates of the Aß25-35 in the reaction solution. 100 μL of an X-mmol/L peptide YS solution (YS-11 or YS-16) was further added to the reaction solution, and the resultant mixture was incubated at 37° C. for 5 days. The concentration (X mmol/L) of the peptide YS in the peptide YS solutions was set to […]. After the incubation, 10 μL of 2-mmol/L ThT was added to each well, and the fluorescence intensity was measured using the measurement device (n=3). The measurement wavelengths were set such that the excitation wavelength (ex) was 444 nm and the fluorescence wavelength (em) was 480 nm. As a control, a reaction solution (Aß25-35) to which water had been added instead of the peptide YS was also measured in the same way. [table]

[7] = target: T2, Aß25-35 aggregates; assay: Ability to dissociate pre-formed Aß25-35 aggregates (ThT fluorescence); format: biochemical; conditions: aggregates formed 18 hours at 37° C., then 100 μL of 1-mmol/L peptide added, 5 days
Method: First, a reaction solution with the following composition was prepared and incubated at 37° C. for 18 hours to form aggregates of the Aß25-35 in the reaction solution. 100 μL of a 1-mmol/L peptide YS (YS-5 or YS-16) was further added to the reaction solution, and the resultant mixture was incubated at 37° C. for 5 days. After the incubation, the reaction solution was dispensed into wells such that the amount of the reaction solution per well was 200 μL. Furthermore, 10 μL of 2-mmol/L ThT was added to each well, and the fluorescence intensity was measured using the measurement device (n=3). The measurement wavelengths were set such that the excitation wavelength (ex) was 444 nm and the fluorescence wavelength (em) was 480 nm. As a control, a reaction solution to which water had been added instead of the peptide YS was also measured in the same way. [table]

Sequence | fluorescence intensity compared with the control (Aß25-35 without peptide YS) [1] | fibrous material / formation of aggregates under scanning electron microscope [2] | alternation rate in Y-maze ([3]; Day 14, ventricular coadministration on Day 1 of 9 nmol Aß25-35 and 9 nmol YS-11 (mixed solution), n=6) | alternation rate in Y-maze ([3]; Day 28, Aß25-35 ventricular on Day 1, then YS-11 nasal 74 nmol on Day 14, 17, 20, 23, n=7) | amount of fibrous aggregates under scanning electron microscope [4] | pIC50 [5] | ability to dissociate Aß25-35 aggregates ([6]; final concentration range of 0.005 to 0.1 mmol/L) | control aggregates dissociated [7] | fluorescence intensity relative to the control (Aß25-35) [7] | aggregates dissociated (control Aß25-35 aggregates taken as 100%) ([6]; final concentration of 0.1 mmol/L, 5 days) | ability to dissociate Aß25-35 aggregates ([6]; final concentration range of 0.01 to 0.1 mmol/L)
RETLVYLTHLD [YS-11, RETLVYLTHLD] | significantly lower; also recorded: considerably lower | decreased very significantly | as high as that of the control group | as high as that of the control group | a further decrease in the amount of fibrous aggregates | 5.44 | excellent dissociating ability |  |  |  | 
RETLVYLTHLDYDDTE [YS-16, RETLVYLTHLDYDDTE] | significantly lower; also recorded: considerably lower | substantially no fibrous material was observed |  |  | a decrease in the amount of fibrous aggregates | 6.22 |  | 50% | 50% | 48% | excellent dissociating ability in a concentration-dependent manner
YKNMRETLVYLTHLD (aggregation inhibitor peptide) [YS-15] | significantly lower |  |  |  |  |  |  |  |  |  | 
